Literature values, collected in patent US10188593B2, “Polysaccharide delivery particle” (Spray-Tek, Inc., priority 2016, dated 2019).

Settings: perfume oil ingredients

In order of falling “Octanol/water Partition Coefficient (logP)” value:
1. CCCCCCCCCCCC#N [Lauronitrile]  4.84
2. C=C(C)[C@H]1CC=C(C)CC1 [d-Limonene]  4.38
3. CC(=O)/C=C/C1=C(C)CCCC1(C)C [beta-Ionone]  4.02
4. CC(=O)OCCC(C)CCC=C(C)C (centres unmarked) [Citronellyl_acetate]  3.7
5. CC(C)c1cccc(C(C)CC=O)c1 (centres unmarked) [Florhydral]  3.59
6. C=CC(C)CCCC(C)(C)O (centres unmarked) [Dihydromyrcenol]  3.08
7. CCC=C(C)C(O)CCCCC (centres unmarked) [Undecavertol]  3.06
8. C=CCOC(=O)COCCC(C)C [Allyl_amyl_glycolate]  2.81
9. CC(C)=CCCC(C)CCO (single isomer, unassigned; (-)) [(−)-Citronellol]  2.76
10. CCCCCCOC(C)=O [Hexyl_acetate]  2.64
11. C=CC(C)(O)CCC=C(C)C (centres unmarked) [Linalool]  2.44
12. CCOC(=O)C(C)CC (centres unmarked) [Ethyl_2-methylbutyrate]  1.91
13. CC=Cc1ccc(O)c(OC)c1 [Isoeugenol]  1.85
14. CCOc1cc(C=O)ccc1O [Ethyl_vanillin]  1.53
